The supplement of paper PMC8967900

Columns and labels:
Test in all cases: selective drug sensitivity score (sDSS, relative to normal bone marrow) (sDSS (score)); higher = more potent and effective on the cell line relative to normal bone marrow cells
Details in all cases: 72 h
[1] = test system: ALL-PO
[2] = test system: CCRF-HSB2
[3] = test system: COG-LL-355h
[4] = test system: COG-LL-394h
[5] = test system: COG-LL-402h
[6] = test system: DND-41
[7] = test system: KASUMI-9
[8] = test system: MHH-CALL-3
[9] = test system: MOLT-16
[10] = test system: MOLT-4
[11] = test system: NALM-16
[12] = test system: P30-OHKUBO
[13] = test system: PEER
[14] = test system: RCH-ACV
[15] = test system: REH
[16] = test system: RPMI-8402
[17] = test system: SEM cells
[18] = test system: SUP-B15
[19] = test system: TANOUE
[20] = test system: TMD5
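Note: ALL cell lines in 384-well plates, five doses spanning 10,000-fold, each plate scaled between vehicle and 100 µmol/L benzalkonium chloride controls, sDSS an adapted area-under-curve metric.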

Row | SMILES | selective drug sensitivity score [1] | selective drug sensitivity score [2] | selective drug sensitivity score [3] | selective drug sensitivity score [4] | selective drug sensitivity score [5] | selective drug sensitivity score [6] | selective drug sensitivity score [7] | selective drug sensitivity score [8] | selective drug sensitivity score [9] | selective drug sensitivity score [10] | selective drug sensitivity score [11] | selective drug sensitivity score [12] | selective drug sensitivity score [13] | selective drug sensitivity score [14] | selective drug sensitivity score [15] | selective drug sensitivity score [16] | selective drug sensitivity score [17] | selective drug sensitivity score [18] | selective drug sensitivity score [19] | selective drug sensitivity score [20]
1 | CO[C@H]1C(=O)[C@]2(C)[C@@H](OC)C[C@H]3OC[C@@]3(OC(C)=O)[C@H]2[C@H](OC(=O)c2ccccc2)[C@]2(O)C[C@H](OC(=O)[C@H](O)[C@@H](NC(=O)OC(C)(C)C)c3ccccc3)C(C)=C1C2(C)C [Cabazitaxel] (top concentration 1000 nM) | 15.1 | 21.1 | 2.58 | 6.08 | 17.1 | -4.32 | 18.7 | 6.78 | 26.7 | 18.4 | 11.4 | 20.3 | 23 | 22.9 | 17.9 | 15.5 | 19.5 | 21.9 | -11.5 | 2.88
2 | Cc1cc([C@@H](C)Nc2ccccc2C(=O)O)c2nc(N3CCOCC3)cc(=O)n2c1 [AZD-6482] (top concentration 2500 nM) | 3.92 | 2.12 | 6.92 | -0.28 | 6.52 | 2.32 | 5.82 | 0.42 | -0.28 | 1.52 | 0.42 | 9.12 | -0.28 | 17.6 | 7.82 | 2.32 | 1.92 | 2.22 | 0.02 | -0.28
3 | Nc1nc(NC2CC2)cc(-c2cccc(Cl)c2Cl)n1 [TH588] (top concentration 25000 nM) | 10.5 | 8.42 | 2.42 | -0.58 | 3.72 | 5.82 | 7.92 | -0.58 | 16.3 | 9.12 | 5.32 | 4.02 | 12 | 3.52 | 5.82 | 5.72 | 8.62 | 7.62 | -0.58 | -0.28
4 | Cc1nn(C)c(COc2ccc(N3CCN(S(=O)(=O)N(C)C)CC3)cc2)c1-c1cccc2c(CCCOc3cccc4ccccc34)c(C(=O)O)n(CCN3CCOCC3)c12 (top concentration 50000 nM) | 8.86 | 5.36 | 15.3 | 4.56 | 4.26 | 4.56 | 5.66 | 2.56 | 12.6 | 6.56 | 4.36 | 4.46 | 10.2 | 4.66 | 8.46 | 4.86 | 4.96 | 8.16 | 2.56 | 4.26
5 | COc1cccc2c1c(O)c(C(=O)N(C)c1ccc(C(F)(F)F)cc1)c(=O)n2C [Tasquinimod] (top concentration 10000 nM) | -0.32 | 2.38 | -0.42 | -0.42 | -0.42 | 1.08 | -0.42 | -0.42 | -0.42 | -0.42 | -0.42 | -0.42 | -0.32 | -0.42 | -0.42 | -0.42 | -0.42 | 2.78 | 1.58 | -0.42
6 | CC(C)(C)c1cc(NC(=O)Nc2ccc(-c3cn4c(n3)sc3cc(OCCN5CCOCC5)ccc34)cc2)no1 [Quizartinib] (top concentration 1000 nM) | 14.1 | -0.12 | -1.02 | -0.32 | -1.52 | 5.38 | -0.02 | -1.52 | 1.88 | -0.82 | -1.32 | 0.68 | -0.02 | 2.08 | -1.52 | 1.18 | 20.7 | 0.38 | -1.52 | -1.52
7 | Cc1c(N)nc([C@H](CC(N)=O)NC[C@H](N)C(N)=O)nc1C(=O)N[C@H](C(=O)N[C@H](C)[C@@H](O)[C@H](C)C(=O)N[C@H](C(=O)NCCc1nc(-c2nc(C(=O)NCCC[S+](C)C)cs2)cs1)[C@@H](C)O)[C@@H](O[C@@H]1O[C@@H](CO)[C@@H](O)[C@H](O)[C@@H]1O[C@H]1O[C@H](CO)[C@@H](O)[C@H](OC(N)=O)[C@@H]1O)c1c[nH]cn1 [Bleomycin] (top concentration 10000 nM) | -1.76 | -0.06 | 4.14 | 2.24 | 2.84 | 1.14 | 6.24 | 4.14 | 4.54 | 2.24 | -1.86 | 4.44 | -0.66 | 7.54 | 9.44 | -1.36 | 11.1 | 6.44 | -1.86 | 7.34
8 | COc1ccc(CCc2nc3cc(-c4c(C)noc4C)ccc3n2C[C@H](C)N2CCOCC2)cc1Cl [SGC-CBP30] (top concentration 25000 nM) | 4.38 | 2.38 | 9.88 | 5.38 | 7.78 | 2.88 | 5.58 | 9.48 | 6.58 | 1.88 | 0.48 | 1.88 | 4.08 | 7.88 | -0.02 | 5.08 | 6.48 | 6.28 | -3.12 | -2.62
9 | CC#CC(=O)N1CC[C@@H](n2c(=O)n(-c3ccc(Oc4ccccc4)cc3)c3c(N)ncnc32)C1 [Tirabrutinib] (top concentration 1000 nM) | 0 | 0.8 | 0 | 0 | 5.2 | 2.3 | 0 | 1.7 | 0.9 | 0 | 0 | 0 | 0 | 11 | 0 | 0 | 1.1 | 14.7 | 0 | 1
10 | CS(=O)(=O)c1ccc(-c2cnc(N)c(C(=O)Nc3ccccc3)n2)cc1 [VE-821] (top concentration 10000 nM) | 2.64 | 4.44 | 5.64 | -0.66 | 0.34 | -0.66 | 0.84 | -0.06 | 7.94 | 3.94 | -0.66 | -0.16 | 0.54 | 7.94 | 7.14 | 5.54 | 2.44 | 6.94 | 0.64 | -0.66
11 | O=C(/C=C/c1cccnc1)NCCCCC1CCN(C(=O)c2ccccc2)CC1 [Daporinad] (top concentration 1000 nM) | 13.8 | 6.76 | 11 | -4.44 | 16.4 | 19.9 | 16.2 | 14.6 | 11.2 | 5.86 | 2.96 | 16 | 8.76 | 19.5 | 15.5 | 16.3 | 17.2 | 19.4 | 7.66 | 4.46
12 | CCOC(=O)CCNc1cc(N2CCc3ccccc3CC2)nc(-c2ccccn2)n1 [GSK-J4] (top concentration 100000 nM) | -7.18 | -7.18 | -4.78 | -9.68 | -7.88 | -6.88 | -7.88 | -13.2 | -5.48 | -7.98 | -8.38 | -8.18 | -5.48 | -8.58 | -7.88 | -8.18 | -8.58 | -8.48 | -11.6 | -9.38
13 | Cc1cnc(Nc2ccc(OCCN3CCCC3)cc2)nc1Nc1cccc(S(=O)(=O)NC(C)(C)C)c1 [Fedratinib] (top concentration 10000 nM) | 3.24 | 0.54 | 3.84 | 0.14 | 1.24 | 3.94 | -0.86 | 2.54 | -1.06 | -2.86 | -2.16 | -2.16 | -0.16 | -1.06 | -2.76 | -2.16 | 2.74 | -0.66 | -7.06 | -2.26
14 | C[C@@H](Oc1cc(-n2cnc3ccc(CN4CCN(C)CC4)cc32)sc1C(N)=O)c1ccccc1C(F)(F)F (top concentration 10000 nM) | 22 | 24.2 | 5.62 | 3.22 | 16.2 | 13.2 | 26 | 8.92 | 20.2 | 22.8 | 17.4 | 21.7 | 30 | 20.9 | 21.8 | 28.8 | 28.3 | 27.2 | -11.2 | 11.8
15 | Cc1sc2c(c1C)C(c1ccc(Cl)cc1)=N[C@@H](CC(=O)OC(C)(C)C)c1nnc(C)n1-2 [JQ1] (top concentration 10000 nM) | 4.62 | 0.72 | 3.72 | -2.88 | 8.12 | 2.52 | 11.8 | 16 | 8.82 | -4.28 | 2.02 | 8.72 | -1.88 | 12.3 | -3.58 | 3.12 | 11.4 | 3.02 | -7.48 | -3.08
16 | CC(=O)c1cnc2ccc(-c3cc(Cl)c(O)c(Cl)c3)nc2c1N[C@H]1CC[C@H](CN(C)C)CC1 [OTS167] (top concentration 1000 nM) | -2.12 | 13.2 | 6.18 | 4.08 | 7.08 | -1.12 | 3.58 | -1.02 | 2.78 | -1.32 | -4.52 | 0.98 | 1.78 | 8.28 | 2.18 | 0.28 | 0.58 | 2.98 | -12.1 | -7.22
17 | CNC(=O)c1ccccc1Nc1nc(Nc2ccc3c(c2OC)CCC[C@H](N2CCN(CCO)CC2)C3)ncc1Cl (top concentration 5000 nM) | 5.76 | -1.44 | 6.96 | 3.16 | -0.84 | 0.06 | 0.26 | -1.94 | 2.06 | -0.74 | -2.44 | 6.36 | -1.44 | 0.46 | -2.24 | -0.74 | 3.06 | 3.96 | -5.34 | -2.74
